Test results reported in PubChem BioAssay AID342 (DTP/NCI, 2004).
Where “and” joins values, the source holds several entries; their conditions need not be identical. Equal entries are not always repeated.

Tested on: Swiss mice, Sarcoma 180 sc, mean tumor weight T/C
Test: NCI In Vivo Anticancer Drug Screen. Data for tumor model Sarcoma 180 (subcutaneous) in Swiss mice
Conditions: endpoint: mean tumor weight, higher = larger tumour
Method in brief: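 Readout is the ratio of treated-group measurement to vehicle-control measurement (T/C), based on survival or tumor size in mice carrying transplanted tumors.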

[1] = dose: 45.0 mg/kg/injection, schedule: Q01DX007 (ip), vehicle: carboxymethylcellulose (CMC)
[2] = dose: 67.0 mg/kg/injection, schedule: Q01DX007 (ip), vehicle: carboxymethylcellulose (CMC)
[3] = dose: 0.5 mg/kg/injection, schedule: Q01DX007 (ip), vehicle: carboxymethylcellulose (CMC)
[4] = dose: 1.0 mg/kg/injection, schedule: Q01DX007 (ip), vehicle: carboxymethylcellulose (CMC)
[5] = dose: 12.5 mg/kg/injection, schedule: Q01DX007 (ip), vehicle: carboxymethylcellulose (CMC)
[6] = dose: 25.0 mg/kg/injection, schedule: Q01DX007 (ip), vehicle: carboxymethylcellulose (CMC)
[7] = dose: 125.0 mg/kg/injection, schedule: Q#A X014 (ip), vehicle: carboxymethylcellulose (CMC)

SMILES: S=P(N1CCCCCC1)(N1CC1)N1CC1
- T/C (dose: 6.0 mg/kg/injection, schedule: Q01DX007 (ip), vehicle: carboxymethylcellulose (CMC)): 90 % of control
- T/C (dose: 6.5 mg/kg/injection, schedule: Q#A X014 (ip), vehicle: methylcellulose (MC)): 52 % of control
- T/C (dose: 9.0 mg/kg/injection, schedule: Q01DX007 (ip), vehicle: carboxymethylcellulose (CMC)): 60 % of control
- T/C (dose: 10.0 mg/kg/injection, schedule: Q#A X014 (ip), vehicle: methylcellulose (MC)): 60 % of control
- T/C (dose: 13.0 mg/kg/injection, schedule: Q01DX007 (ip), vehicle: carboxymethylcellulose (CMC)): 74 % of control
- T/C (dose: 15.0 mg/kg/injection, schedule: Q#A X014 (ip), vehicle: methylcellulose (MC)): 53 % of control
- T/C (dose: 20.0 mg/kg/injection, schedule: Q01DX007 (ip), vehicle: carboxymethylcellulose (CMC)): 62 % of control
- T/C (dose: 22.5 mg/kg/injection, schedule: Q#A X014 (ip), vehicle: methylcellulose (MC)): 23 % of control
- T/C (dose: 29.0 mg/kg/injection, schedule: Q01DX007 (ip), vehicle: carboxymethylcellulose (CMC)): 89 % of control
- T/C [1]: 57 % of control
- T/C (dose: 45.0 mg/kg/injection, schedule: Q01DX007 (ip), vehicle: saline): 25 % of control
- T/C [2]: 38 % of control
- T/C (dose: 90.0 mg/kg/injection, schedule: Q01DX007 (ip), vehicle: saline): 12 % of control

SMILES: Nc1n[se]nc1C(=O)O
- T/C [3]: 96 % of control
- T/C [4]: 117 % of control
- T/C (dose: 2.0 mg/kg/injection, schedule: Q01DX007 (ip), vehicle: carboxymethylcellulose (CMC)): 77 % of control

SMILES: Nc1ccc(C(=O)NCCCC(=O)O)cc1
- T/C (dose: 125.0 mg/kg/injection, schedule: Q01DX007 (ip), vehicle: water): 101 % of control
- T/C (dose: 500.0 mg/kg/injection, schedule: Q01DX007 (ip), vehicle: water): 90 % of control

SMILES: [O]=[V]
- T/C (dose: 7.5 mg/kg/injection, schedule: Q01DX007 (sc), vehicle: olive oil, sesame oil, peanut oil): 94 % of control
- T/C (dose: 15.0 mg/kg/injection, schedule: Q01DX007 (sc), vehicle: olive oil, sesame oil, peanut oil): 89 % of control
- T/C (dose: 30.0 mg/kg/injection, schedule: Q01DX007 (sc), vehicle: olive oil, sesame oil, peanut oil): 100 % of control

SMILES: Nc1nc2n[nH]nc2c(=O)[nH]1
- T/C (dose: 12.5 mg/kg/injection, schedule: Q01DX007 (ip), vehicle: other): 118 % of control
- T/C (dose: 12.5 mg/kg/injection, schedule: Q#A X014 (ip), vehicle: other): 101 % of control
- T/C (dose: 15.75 mg/kg/injection, schedule: Q01DX007 (ip), vehicle: other): 78 % of control
- T/C (dose: 25.0 mg/kg/injection, schedule: Q01DX007 (ip), vehicle: other): 85 % of control
- T/C (dose: 25.0 mg/kg/injection, schedule: Q#A X014 (ip), vehicle: other): 68 % of control
- T/C (dose: 31.5 mg/kg/injection, schedule: Q01DX007 (ip), vehicle: carboxymethylcellulose (CMC)): 109 % of control
- T/C (dose: 31.5 mg/kg/injection, schedule: Q01DX007 (ip), vehicle: other): 69 % of control
- T/C (dose: 31.5 mg/kg/injection, schedule: Q01DX007 (ip), vehicle: water): 43 % of control
- T/C (dose: 50.0 mg/kg/injection, schedule: Q01DX007 (ip), vehicle: other): 70 % of control
- T/C (dose: 50.0 mg/kg/injection, schedule: Q#A X014 (ip), vehicle: other): 38 % of control
- T/C (dose: 50.4 mg/kg/injection, schedule: Q01DX007 (ip), vehicle: other): 84 % of control
- T/C (dose: 63.0 mg/kg/injection, schedule: Q01DX007 (ip), vehicle: carboxymethylcellulose (CMC)): 58 % of control
- T/C (dose: 63.0 mg/kg/injection, schedule: Q01DX007 (ip), vehicle: other): 54 % of control and 60 % of control
- T/C (dose: 63.0 mg/kg/injection, schedule: Q01DX007 (ip), vehicle: water): 57 % of control
- T/C (dose: 84.0 mg/kg/injection, schedule: Q01DX007 (ip), vehicle: other): 63 % of control
- T/C (dose: 94.5 mg/kg/injection, schedule: Q01DX007 (ip), vehicle: carboxymethylcellulose (CMC)): 54 % of control
- T/C (dose: 94.5 mg/kg/injection, schedule: Q01DX007 (ip), vehicle: water): 15 % of control
- T/C (dose: 100.0 mg/kg/injection, schedule: Q01DX007 (ip), vehicle: other): 95 % of control and 116 % of control
- T/C (dose: 100.0 mg/kg/injection, schedule: Q#A X014 (ip), vehicle: other): 64 % of control
- T/C (dose: 126.0 mg/kg/injection, schedule: Q01DX007 (ip), vehicle: carboxymethylcellulose (CMC)): 39 % of control
- T/C (dose: 126.0 mg/kg/injection, schedule: Q01DX007 (ip), vehicle: other): 33 % of control
- T/C (dose: 126.0 mg/kg/injection, schedule: Q01DX007 (ip), vehicle: water): 18 % of control
- T/C (dose: 200.0 mg/kg/injection, schedule: Q01DX007 (ip), vehicle: other): 70 % of control
- T/C (dose: 400.0 mg/kg/injection, schedule: Q01DX007 (ip), vehicle: other): 52 % of control

SMILES: O=[N+]([O-])c1ccc(/C=N\Nc2ccc([N+](=O)[O-])cn2)cc1
- T/C (dose: 5.1 mg/kg/injection, schedule: Q#A X014 (ip), vehicle: methylcellulose (MC)): 88 % of control
- T/C (dose: 10.25 mg/kg/injection, schedule: Q#A X014 (ip), vehicle: methylcellulose (MC)): 61 % of control
- T/C (dose: 12.0 mg/kg/injection, schedule: Q#A X014 (ip), vehicle: methylcellulose (MC)): 98 % of control
- T/C (dose: 20.55 mg/kg/injection, schedule: Q#A X014 (ip), vehicle: methylcellulose (MC)): 64 % of control
- T/C (dose: 41.1 mg/kg/injection, schedule: Q#A X014 (ip), vehicle: methylcellulose (MC)): 47 % of control

SMILES: N#[N+]c1n[nH]nc1C(N)=O
- T/C [5]: 114 % of control
- T/C [6]: 74 % of control

SMILES: CCCCn1cnc2c(=S)nc[nH]c21
- T/C [5]: 77 % of control
- T/C [6]: 53 % of control
- T/C (dose: 50.0 mg/kg/injection, schedule: Q01DX007 (ip), vehicle: carboxymethylcellulose (CMC)): 63 % of control
- T/C (dose: 100.0 mg/kg/injection, schedule: Q01DX007 (ip), vehicle: carboxymethylcellulose (CMC)): 29 % of control

SMILES: O=CN(O)CC(=O)O
- T/C (dose: 62.5 mg/kg/injection, schedule: Q01DX007 (ip), vehicle: carboxymethylcellulose (CMC)): 105 % of control
- T/C (dose: 250.0 mg/kg/injection, schedule: Q01DX007 (ip), vehicle: carboxymethylcellulose (CMC)): 83 % of control
- T/C (dose: 500.0 mg/kg/injection, schedule: Q01DX007 (ip), vehicle: carboxymethylcellulose (CMC)): 84 % of control
- T/C (dose: 750.0 mg/kg/injection, schedule: Q01DX007 (ip), vehicle: carboxymethylcellulose (CMC)): 62 % of control
- T/C (dose: 1000.0 mg/kg/injection, schedule: Q01DX007 (ip), vehicle: carboxymethylcellulose (CMC)): 61 % of control

SMILES: COc1cc(C(=O)CC2CCCCN2)ccc1O (configuration not stated)
- T/C (dose: 55.0 mg/kg/injection, schedule: Q01DX007 (ip), vehicle: saline): 62 % of control
- T/C (dose: 83.0 mg/kg/injection, schedule: Q01DX007 (ip), vehicle: saline): 120 % of control
- T/C (dose: 125.0 mg/kg/injection, schedule: Q01DX007 (ip), vehicle: saline): 95 % of control and 96 % of control
- T/C (dose: 250.0 mg/kg/injection, schedule: Q01DX007 (ip), vehicle: saline): 83 % of control

SMILES: CCC1=C(c2cc(Cl)c3ccccc3c2OCC(=O)O)OC(CC)(C(=O)c2cc(Cl)c3ccccc3c2OCC(=O)O)CC1 (configuration not stated)
- T/C (dose: 2.0 mg/kg/injection, schedule: Q01DX007 (ip), vehicle: other): 110 % of control
- T/C (dose: 4.0 mg/kg/injection, schedule: Q01DX007 (ip), vehicle: other): 120 % of control
- T/C (dose: 8.0 mg/kg/injection, schedule: Q01DX007 (ip), vehicle: other): 90 % of control
- T/C (dose: 16.0 mg/kg/injection, schedule: Q01DX007 (ip), vehicle: other): 112 % of control
- T/C (dose: 75.0 mg/kg/injection, schedule: Q01DX007 (ip), vehicle: other): 95 % of control
- T/C (dose: 111.0 mg/kg/injection, schedule: Q01DX007 (ip), vehicle: other): 49 % of control

SMILES: CC(=O)Nc1ccc(/C=N/Nc2ccc([N+](=O)[O-])cn2)cc1
- T/C [1]: 62 % of control
- T/C [2]: 79 % of control
- T/C (dose: 83.3 mg/kg/injection, schedule: Q#A X014 (ip), vehicle: carboxymethylcellulose (CMC)): 77 % of control
- T/C (dose: 83.3 mg/kg/injection, schedule: Q#A X014 (ip), vehicle: methylcellulose (MC)): 61 % of control
- T/C [7]: 22 % of control
- T/C (dose: 187.5 mg/kg/injection, schedule: Q#A X014 (ip), vehicle: carboxymethylcellulose (CMC)): 48 % of control
- T/C (dose: 281.25 mg/kg/injection, schedule: Q#A X014 (ip), vehicle: carboxymethylcellulose (CMC)): 47 % of control

SMILES: COc1ccc2c3c(c4cc(OC)c(OC)cc4c2c1)C[C@H]1CCCCN1C3
- T/C [3]: 82 % of control
- T/C [4]: 65 % of control

SMILES: NC(=O)c1[nH]cnc1/N=N/N1CCCC1
- T/C (dose: 62.5 mg/kg/injection, schedule: Q#A X014 (ip), vehicle: carboxymethylcellulose (CMC)): 73 % of control
- T/C [7]: 107 % of control
